Experimental data from patent publication US10399980B2, “Purinones as ubiquitin-specific protease 1 inhibitors” (FORMA Therapeutics, Inc., priority 2015, dated 2019).

Target: USP1, construct USP1 (1-785, GG670, 671AA)/UAF1 (1-677)-Flag (Homo sapiens (Human), UniProt O94782, G670A/G671A)
Experiment: Ubiquitin-Rhodamine 110 assay for USP1 activity, follow-up IC50 studies
Format: biochemical
Settings: USP1/UAF1, 30 min preincubation
Method: Example 53: Ubitquin-Rhodamine 110 Assay for USP1 Activity
Nanoliter quantities of either an 8-point or 10-point, 3-fold serial dilution in DMSO was pre-dispensed into assay plates (Perkin Elmer, ProxiPlate-384 F Plus, #6008269) for a final test concentration range of either 25 μM to 11 nM or 25 μM to 1.3 nM, respectively. The final concentration of the enzyme (USP1, construct USP1 (1-785, GG670, 671AA)/UAF1 (1-677)-Flag; Viva) in the assay was 25 pM. Final substrate (Ub-Rh110; Ubiquitin-Rhodamine 110, R&D Systems #U-555) concentration was 25 nM with [Ub-Rh110]<<Km. […] Plates were incubated stacked for 20 minutes at room temperature before 5 μL of stop solution (final concentration of 10 mM citric acid in assay buffer (Sigma, #251275-500G)). Fluorescence was read on the Envision (Excitation at 485 nm and Emission at 535 nm; Perkin Elmer) or on the PheraSTAR (Excitation at 485 nm and Emission at 535 nm; BMG Labtech).
For both assay formats data were reported as percent inhibition compared with control wells based on the following equation: % inh=[1−((FLU−AveLow)/(AveHigh−AveLow))]×100 where FLU=measured Fluorescence, AveLow=average Fluorescence of no enzyme control (n=16), and AveHigh=average Fluorescence of DMSO control (n=16). IC50 values were determined by curve fitting of the standard 4 parameter logistic fitting algorithm included in the Activity Base software package: IDBS XE Designer Model205. Data is fitted using the Levenburg Marquardt algorithm.

Sequence of USP1, construct USP1 (1-785, GG670, 671AA)/UAF1 (1-677)-Flag (O94782 whole entry G670A/G671A): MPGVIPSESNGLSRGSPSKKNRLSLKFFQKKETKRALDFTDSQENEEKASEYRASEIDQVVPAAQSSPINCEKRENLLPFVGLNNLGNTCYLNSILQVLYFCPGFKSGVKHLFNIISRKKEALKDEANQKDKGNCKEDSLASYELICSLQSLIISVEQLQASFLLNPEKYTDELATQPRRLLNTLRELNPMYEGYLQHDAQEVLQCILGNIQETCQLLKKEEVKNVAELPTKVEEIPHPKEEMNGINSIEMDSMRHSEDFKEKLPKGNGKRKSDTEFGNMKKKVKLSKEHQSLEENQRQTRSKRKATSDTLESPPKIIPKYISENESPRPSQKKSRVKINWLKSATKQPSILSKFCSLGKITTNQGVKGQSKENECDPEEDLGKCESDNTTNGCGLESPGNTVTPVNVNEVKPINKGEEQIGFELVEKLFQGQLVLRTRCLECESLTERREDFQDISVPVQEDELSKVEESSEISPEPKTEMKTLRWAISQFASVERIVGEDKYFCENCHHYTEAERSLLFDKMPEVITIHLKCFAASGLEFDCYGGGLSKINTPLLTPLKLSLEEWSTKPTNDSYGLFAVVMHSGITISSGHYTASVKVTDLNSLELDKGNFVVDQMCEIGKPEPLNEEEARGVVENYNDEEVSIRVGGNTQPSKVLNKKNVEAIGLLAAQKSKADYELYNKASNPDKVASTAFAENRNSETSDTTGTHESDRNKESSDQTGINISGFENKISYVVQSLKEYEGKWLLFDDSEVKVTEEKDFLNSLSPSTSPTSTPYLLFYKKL
Sequence of USP1, construct USP1 (1-785, GG670, 671AA)/UAF1 (1-677)-Flag (Q8TAF3 whole entry partner): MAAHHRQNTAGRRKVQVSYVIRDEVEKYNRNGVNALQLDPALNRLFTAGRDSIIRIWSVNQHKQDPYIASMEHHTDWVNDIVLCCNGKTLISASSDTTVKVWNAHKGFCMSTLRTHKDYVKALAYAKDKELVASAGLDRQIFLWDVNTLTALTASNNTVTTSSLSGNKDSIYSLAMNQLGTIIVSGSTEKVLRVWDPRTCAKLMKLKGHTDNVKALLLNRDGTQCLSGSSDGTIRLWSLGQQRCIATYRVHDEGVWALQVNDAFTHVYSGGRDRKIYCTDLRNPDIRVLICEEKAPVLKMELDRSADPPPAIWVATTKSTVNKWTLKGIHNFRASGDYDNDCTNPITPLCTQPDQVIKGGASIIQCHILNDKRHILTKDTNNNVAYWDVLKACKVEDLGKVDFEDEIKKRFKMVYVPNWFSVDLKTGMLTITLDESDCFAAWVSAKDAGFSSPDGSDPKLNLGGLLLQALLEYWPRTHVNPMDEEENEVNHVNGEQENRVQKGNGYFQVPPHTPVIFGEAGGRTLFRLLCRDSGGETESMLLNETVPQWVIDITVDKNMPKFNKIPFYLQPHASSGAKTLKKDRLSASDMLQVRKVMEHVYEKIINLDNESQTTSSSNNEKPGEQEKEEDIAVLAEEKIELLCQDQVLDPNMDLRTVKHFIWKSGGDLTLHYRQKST

Compound | IC50
Cc1cc(C)n([C@H]2CC[C@H](Cn3c(=O)[nH]c4cnc(-c5ccccc5C(C)C)nc43)CC2)n1 [I-213, 9-(((1r,4r)-4-(3,5-dimethyl-1H-pyrazol-1-yl)cyclohexyl)methyl)-2-(2-isopropylphenyl)-7,9-dihydro-8H-purin-8-one] | 200 to 2000 nM
Cn1cc(C(F)(F)F)nc1-c1ccc(Cn2c(=O)n(C)c3cnc(-c4ccccc4C4CC4)nc32)cc1 [I-70, 2-(2-cyclopropylphenyl)-7-methyl-9-(4-(1-methyl-4-(trifluoromethyl)-1H-imidazol-2-yl)benzyl)-7,9-dihydro-8H-purin-8-one] | < 50 nM
Cc1cc(C)n([C@H]2CC[C@@H](Cn3c(=O)n(C)c4cnc(-c5ccccc5C(C)C)nc43)CC2)n1 [I-111, 9-(((1s,4s)-4-(3,5-dimethyl-1H-pyrazol-1-yl)cyclohexyl)methyl)-2-(2-isopropylphenyl)-7-methyl-7,9-dihydro-8H-purin-8-one] | 50 to 200 nM
